Here are results for four compounds from patent US4129721A, “A-40104 antibiotics and process for production thereof” (priority 1977, dated 1978).

In data set [1] the test system is Staphylococcus aureus 3055. Briefly: experimental bacterial infection in mice. In kind it is in vivo. As to conditions: two doses, read-out: ED50 × 2.
A further data set relates to Pasteurella hemolytica. Briefly: standard in vitro tests, Pasteurella. Format: cell-based. An excerpt: (§1) Another veterinary aspect of this invention is the activity of the A-40104 antibiotics against Pasteurella species. P. multocida, for example, is a causative agent of respiratory infection in cattle, poultry, and swine. P. hemolytica is a major cause of respiratory disease in cattle. The activity of A-40104 factor A and its dihydro derivative against Pasteurella, as determined by standard in vitro tests, is summarized in Table X.

Data set [2] concerns Pasteurella multocida (bovine). As to the kind of experiment: standard in vitro tests, Pasteurella. Format: cell-based.
Description: as §1

Another data set concerns Mycoplasma synoviae. As to the kind of experiment: in vitro broth-dilution studies, mycoplasma. Format: cell-based. The text has this: (§2) The minimal inhibitory concentrations (MIC's) of A-40104 factor A; 19,20-dihydro-A-40104 factor A; and the tetraacetyl derivative of A-40104A against various mycoplasma species, as determined by in vitro broth-dilution studies, are summarized in Table IX.

A further data set concerns Mycoplasma gallisepticum. Briefly: in vitro broth-dilution studies, mycoplasma. Format: cell-based.
Description: as §2

The next data set has as its system Mycoplasma hyorhinis. As to the kind of experiment: in vitro broth-dilution studies, mycoplasma. Format: cell-based.
Description: as §2

Another data set concerns Mycoplasma hyopneumoniae. As to the kind of experiment: in vitro broth-dilution studies, mycoplasma. Format: cell-based.
Description: as §2

In data set [3] the test system is Streptococcus pyogenes C203. Briefly: experimental bacterial infection in mice. Format: in vivo. The settings on record: sc, two doses, challenge 1,690 × LD50 (ip), read-out: ED50 × 2.
The test system of data set [4] is Streptococcus pneumoniae Bi-343. As to the kind of experiment: experimental bacterial infection in mice. As to conditions: BI343, sc, two doses, challenge 30 × LD50 (ip), read-out: ED50 × 2. Format: in vivo.
Data set [5] relates to Streptococcus pneumoniae BI-492. As to the kind of experiment: experimental bacterial infection in mice. Format: in vivo. The settings on record: BI492, sc, two doses, challenge 340 × LD50 (ip), read-out: ED50 × 2.
Data set [6] concerns experimental bacterial infections. As to the kind of experiment: experimental bacterial infections in mice (general statement). In kind it is in vivo. The procedure:
When two doses of these compounds were administered to mice in illustrative infections, the activity observed was measured as an ED50 value [effective dose in mg./kg. to protect 50 percent of the test animals; see Warren Wick, et al., J. Bacteriol. 81, 233-235 (1961)].

For data set [7], the system named is Hemophilus influenzae 260. Briefly: gradient-plate agar-dilution method. Format: cell-based. As to conditions: Haemophilus influenzae.
Another data set relates to Streptococcus pyogenes. Briefly: gradient-plate agar-dilution method. Format: cell-based.
Data set [8] deals with Neisseria gonorrhea Lind. Briefly: gradient-plate agar-dilution method. In kind it is cell-based.
Data set [9] concerns Streptococcus sp. 9960 (Group D). As to the kind of experiment: gradient-plate agar-dilution method. Format: cell-based.
Data set [10] deals with Hemophilus influenzae 251. Briefly: gradient-plate agar-dilution method. In kind it is cell-based. As to conditions: Haemophilus influenzae.
For data set [11], the system named is Hemophilus influenzae Dick. Briefly: gradient-plate agar-dilution method. In kind it is cell-based. The settings on record: Haemophilus influenzae.
The test system of data set [12] is Hemophilus influenzae 259. Briefly: gradient-plate agar-dilution method. The settings on record: Haemophilus influenzae. In kind it is cell-based.
For data set [13], the system named is Streptococcus sp. X-66 (Group D). Briefly: gradient-plate agar-dilution method. Format: cell-based.
In data set [14] the test system is Hemophilus influenzae Brun. As to the kind of experiment: gradient-plate agar-dilution method. Format: cell-based. The settings on record: Haemophilus influenzae.
The subject of data set [15] is Neisseria gonorrhea Sand. As to the kind of experiment: gradient-plate agar-dilution method. Format: cell-based.
In a further data set the test system is swine dysentery. The settings on record: W. E. Brown et al., U.S. Pat. No. 4,041,175; cited from earlier work.
Data set [16] can be described thus: acute toxicity, intraperitoneal injection in mice. As to conditions: mouse, in vivo, ip. The text has this: A special advantage of the A-40104 antibiotics is that they are relatively nontoxic.

Values after ≈ are worked out from the molar mass of the structure shown. Read-outs that look alike come from different tables or passages of the source.

For the compound `CCC1(C)CC(OC(=O)CO[C@@H]2OC[C@@H](O)[C@H](O)[C@H]2O)C2(C)C(C)CCC3(CCC(=O)C32)C(C)C1O` (some centres unmarked) [Dihydro-A-40104A, 19,20-dihydro A-40104 factor A], the ED50 in [1] (Staphylococcus aureus, 3055, po, oral, challenge 500 × LD50 (ip)) is 27 mg/kg; in data set [1] (Staphylococcus aureus, 3055, po, oral, challenge 3,400 × LD50 (ip)), 28 mg/kg; in data set [1] (Staphylococcus aureus, 3055, sc, sc, challenge 69.5 × LD50 (ip)) it was at most 4.4 mg/kg; in [3] it was 5.8 mg/kg; in [4], 35 mg/kg; in data set [5], 15.2 mg/kg. Besides, the MIC in the data set on Pasteurella hemolytica is 16.5 µg/mL (≈ 32.2 µM); in data set [2], 6.25 µg/mL (≈ 12.2 µM). For the same compound, the “minimal inhibitory concentration (MIC)” value in the data set with Mycoplasma synoviae amounted to 0.195; in the data set on Mycoplasma gallisepticum, 0.195; in the data set on Mycoplasma hyorhinis it was 0.195; in the data set with Mycoplasma hyopneumoniae it was 0.097. In addition, in [6], the “in vivo antimicrobial activity” value is recorded as “have shown in vivo antimicrobial activity”.

For `CC1(C)S[C@@H]2[C@H](NC(=O)[C@H](N)c3ccccc3)C(=O)N2[C@H]1C(=O)O` [Ampicillin, reference compound], the MIC in data set [7] was 70 µg/mL (≈ 200 µM); in the data set on Streptococcus pyogenes, below 0.01 µg/mL; in data set [8], 0.5 µg/mL (≈ 1.43 µM); in [9], 0.6 µg/mL (≈ 1.72 µM); in data set [10], 70 µg/mL (≈ 200 µM); in [11] it was 0.5 µg/mL (≈ 1.43 µM). In addition, the MIC is 70 µg/mL (≈ 200 µM) in data set [12], 0.8 µg/mL (≈ 2.29 µM) in [13], 0.5 µg/mL (≈ 1.43 µM) in data set [14] and 0.07 µg/mL (≈ 0.2 µM) in [15].

Take `C=C[C@]1(C)C[C@@H](OC(=O)CO)[C@]2(C)[C@H](C)CC[C@]3(CCC(=O)[C@H]32)[C@@H](C)[C@@H]1O` [pleuromutilin]: the “effect in treatment of swine dysentery” value in the data set on swine dysentery was “effective in the treatment of swine dysentery”.

Compound `C=CC1(C)CC(OC(=O)CO[C@@H]2OC[C@@H](OC(C)=O)[C@H](OC(C)=O)[C@H]2OC(C)=O)C2(C)C(C)CCC3(CCC(=O)C32)C(C)C1OC(C)=O` (some centres unmarked) [Tetraacetyl A-40104A, tetraacetyl derivative of A-40104 factor A] returned an LD50 in data set [16] above 300 mg/kg. The “minimal inhibitory concentration (MIC)” value turned out to be 50.0 in the data set with Mycoplasma synoviae, 12.5 in the data set on Mycoplasma gallisepticum, 25.0 in the data set on Mycoplasma hyorhinis and 12.5 with Mycoplasma hyopneumoniae.

Broadly, the ED50 is the dose that gives a 50% effect, or the effect in half of the subjects. As a reminder, the LD50 is the dose at which mortality reaches 50%.
